# Measurements published in patent US9440982B2 (Eolas Therapeutics, Inc., priority 2012, dated 2016).
# What was measured:
# OX2 = target: T1, OX2 (Homo sapiens, UniProt O43614); test: Orexin receptor cell-based functional assay, [Ca2+]i by FLIPR, CHO-OX2 cells; details: [Ca2+]i by FLIPR, antagonist dose-range 0.1 nM-10 μM, EC90 of OXA, read-out: OX2
# T1 construct: expressed in transfected cells; host or cells: CHO (CHO-OX2, kept under selection antibiotic)
# T1 sequence (O43614 1-444): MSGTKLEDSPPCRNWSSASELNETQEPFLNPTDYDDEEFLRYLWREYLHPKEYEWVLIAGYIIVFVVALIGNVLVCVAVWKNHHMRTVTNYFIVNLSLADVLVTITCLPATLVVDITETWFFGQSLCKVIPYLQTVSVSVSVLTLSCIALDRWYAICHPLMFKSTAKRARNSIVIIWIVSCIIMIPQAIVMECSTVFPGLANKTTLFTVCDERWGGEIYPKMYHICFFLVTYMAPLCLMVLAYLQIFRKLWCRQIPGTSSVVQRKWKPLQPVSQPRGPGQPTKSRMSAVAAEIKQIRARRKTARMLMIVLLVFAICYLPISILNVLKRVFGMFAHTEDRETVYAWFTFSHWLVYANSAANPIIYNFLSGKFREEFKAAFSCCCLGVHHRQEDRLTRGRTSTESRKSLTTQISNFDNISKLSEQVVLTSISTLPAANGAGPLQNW
# Protocol: Measurement of [Ca^2+]i using a FLIPR: CHO—OX1 or CHO—OX2 cells are seeded into black-walled clear-base 384-well plates (Costar) at a density of 20,000 cells per well in F12-K medium supplemented with 10% FBS and selection antibiotic (500 ug/ml G418 or 15 ug/ml Blasticidin) and cultured overnight. The cells are incubated with equal volume of calcium4 loading buffer (Molecular Devices, Inc.) containing 2.5 mM probenecid at 37° C. for 30 min, followed by putative OX1 or OX2 receptor antagonists (dose-range 0.1 nM-10 μM) for another 30 min.
# The cells are incubated with equal volume of calcium6 loading buffer (Molecular Devices, Inc.) containing 2.5 mM probenecid at 37° C. for 2 h, followed by test compounds (dose-range 0.1 nM-10 μM) for another 30 min.
# CYP3A4 = target: T2, CYP3A4 (Homo sapiens, UniProt P08684); test: Cytochrome P450 inhibition assay (midazolam hydroxylation); assay type: in vitro ADME; details: human, human liver microsomes, probe midazolam (hydroxylation to 1′-hydroxymidazolam), 10 μM test compound, midazolam at approximately its Km
# T2 construct: pre-incubated with human liver microsomes and NADPH; from tissue; host or cells: human liver microsomes
# Procedure, shortened: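 Percent inhibition of midazolam 1′-hydroxylation by 10 μM compound was measured, midazolam dosed at about Km. Time-dependent inhibition was probed by a 30 min preincubation of compound with human liver microsomes and NADPH ahead of substrate, compared against samples without preincubation.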
# OX1 = target: T3, OX1 (Homo sapiens, UniProt O43613); test: Orexin receptor cell-based functional assay, [Ca2+]i by FLIPR, CHO-OX1 cells; details: CHO-OX1 cells, [Ca2+]i by FLIPR, antagonist dose-range 0.1 nM-10 μM, EC90 of OXA; read-out: OX1
# T3 construct: expressed in transfected cells; host or cells: CHO (CHO-OX1, kept under selection antibiotic)
# T3 sequence (O43613 1-425): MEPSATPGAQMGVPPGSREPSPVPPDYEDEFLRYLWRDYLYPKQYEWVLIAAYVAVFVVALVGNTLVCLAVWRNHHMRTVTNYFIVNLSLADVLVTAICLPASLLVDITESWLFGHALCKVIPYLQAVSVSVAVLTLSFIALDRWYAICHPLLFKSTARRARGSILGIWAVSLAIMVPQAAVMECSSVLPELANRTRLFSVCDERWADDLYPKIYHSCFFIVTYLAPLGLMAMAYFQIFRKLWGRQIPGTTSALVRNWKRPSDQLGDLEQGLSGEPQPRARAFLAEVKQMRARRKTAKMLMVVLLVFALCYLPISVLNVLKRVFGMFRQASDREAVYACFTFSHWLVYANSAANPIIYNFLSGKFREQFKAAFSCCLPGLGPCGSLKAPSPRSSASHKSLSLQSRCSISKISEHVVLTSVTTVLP
# Procedure, shortened: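 Antagonist mode FLIPR calcium read in CHO-OX1 and CHO-OX2 lines. Test compounds, dosed 0.1 nM-10 μM, preincubated 30 min after 37° C dye loading with 2.5 mM probenecid (calcium4 for 30 min or calcium6 for 2 h).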
# T2 sequence (P08684 whole entry): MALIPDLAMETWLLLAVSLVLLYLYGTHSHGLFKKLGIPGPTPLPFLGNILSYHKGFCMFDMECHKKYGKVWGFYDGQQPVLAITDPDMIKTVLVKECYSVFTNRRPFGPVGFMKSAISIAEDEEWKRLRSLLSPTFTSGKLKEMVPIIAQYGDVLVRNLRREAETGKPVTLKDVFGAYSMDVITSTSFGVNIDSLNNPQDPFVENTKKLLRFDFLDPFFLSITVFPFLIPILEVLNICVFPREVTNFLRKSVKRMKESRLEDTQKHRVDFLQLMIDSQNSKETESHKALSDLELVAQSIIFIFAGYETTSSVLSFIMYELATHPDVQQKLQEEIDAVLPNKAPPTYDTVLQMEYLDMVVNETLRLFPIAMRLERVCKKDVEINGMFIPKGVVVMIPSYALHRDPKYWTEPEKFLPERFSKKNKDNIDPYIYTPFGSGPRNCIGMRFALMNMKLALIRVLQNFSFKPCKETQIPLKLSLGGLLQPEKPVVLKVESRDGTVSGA
Compound,IC50 (OX2) [µM],inhibition at 10 µM (CYP3A4) [%],IC50 (OX1) [nM]
"C[C@@H]1CCCN(C(=O)c2c(F)ccc(F)c2-c2ncccn2)[C@@H]1CNc1ncc(C(F)(F)F)cn1 [Example A335, (3,6-difluoro-2-(pyrimidin-2-yl)phenyl)((2S,3R)-3-methyl-2-(((5-(trifluoromethyl)pyrimidin-2-yl)amino)methyl)piperidin-1-yl)methanone]",> 5,44,4
"Cc1ccc(C(=O)N2CCC[C@@H](C)[C@H]2CNc2ncc(C(F)(F)F)cn2)c(-n2nccn2)c1F [Example A357, (3-fluoro-4-methyl-2-(2H-1,2,3-triazol-2-yl)phenyl)((2S,3R)-3-methyl-2-(((5-(trifluoromethyl)pyrimidin-2-yl)amino)methyl)piperidin-1-yl)methanone]",> 5,83,5
"Cc1ccc(-n2nccn2)c(C(=O)N2CCC[C@@H](C)[C@H]2CNc2ncc(Cl)cc2F)n1 [Example A192, ((2S,3R)-2-(((5-Chloro-3-fluoropyridin-2-yl)amino)methyl)-3-methylpiperidin-1-yl)(6-methyl-3-(2H-1,2,3-triazol-2-yl)pyridin-2-yl)methanone]",> 5,51,10
"Cc1c(F)ccc(C(=O)N2CCC[C@@H](C)[C@H]2CNc2ncc(C(F)(F)F)cn2)c1-n1nccn1 [Example A345, (4-fluoro-3-methyl-2-(2H-1,2,3-triazol-2-yl)phenyl)((2S,3R)-3-methyl-2-(((5-(trifluoromethyl)pyrimidin-2-yl)amino)methyl)piperidin-1-yl)methanone]",> 5,60,1
"Cc1c(F)ccc(C(=O)N2CCC[C@@H](C)[C@H]2CNc2ncc(C(F)(F)F)cn2)c1-c1ncccn1 [Example A347, (4-fluoro-3-methyl-2-(pyrimidin-2-yl)phenyl)((2S,3R)-3-methyl-2-(((5-(trifluoromethyl)pyrimidin-2-yl)amino)methyl)piperidin-1-yl)methanone]",> 5,35,2
"Cc1cccc(-n2nccn2)c1C(=O)N1CCC[C@@H](C)[C@H]1CNc1ccc(C(F)(F)F)cn1 [Example A265, ((2S,3R)-3-Methyl-2-(((5-(trifluoromethyl)pyridin-2-yl)amino)methyl)piperidin-1-yl)(2-methyl-6-(2H-1,2,3-triazol-2-yl)phenyl)methanone]",> 5,–,8
"C[C@@H]1CCCN(C(=O)c2c(-c3ncccn3)ccc(F)c2F)[C@@H]1CNc1ccc(C(F)(F)F)cn1 [Example A388, (2,3-Difluoro-6-(pyrimidin-2-yl)phenyl)((2S,3R)-3-methyl-2-(((5-(trifluoromethyl)pyridin-2-yl)amino)methyl)piperidin-1-yl)methanone]",> 5,–,4
"Cc1ccc(C(=O)N2CCC[C@@H](C)[C@H]2CNc2ccc(C(F)(F)F)cn2)c(-c2ncccn2)c1 [Example A305, ((2S,3R)-3-Methyl-2-(((5-(trifluoromethyl)pyridin-2-yl)amino)methyl)piperidin-1-yl)(4-methyl-2-(pyrimidin-2-yl)phenyl)methanone]",> 5,–,9
"Cc1c(F)ccc(-c2ncccn2)c1C(=O)N1CCC[C@@H](C)[C@H]1CNc1ncc(C(F)(F)F)cn1 [Example A387, (3-fluoro-2-methyl-6-(pyrimidin-2-yl)phenyl)((2S,3R)-3-methyl-2-(((5-(trifluoromethyl)pyrimidin-2-yl)amino)methyl)piperidin-1-yl)methanone]",> 5,–,30

# Second part, the compound after the results:
IC50 (OX2) [µM],inhibition at 10 µM (CYP3A4) [%],IC50 (OX1) [nM],Compound
4.2,62,–,"Cc1c(F)ccc(C(=O)N2CCC[C@@H](C)[C@H]2CNc2ccc(C(F)(F)F)cn2)c1-c1ncccn1 [Example A346, (4-fluoro-3-methyl-2-(pyrimidin-2-yl)phenyl)((2S,3R)-3-methyl-2-(((5-(trifluoromethyl)pyridin-2-yl)amino)methyl)piperidin-1-yl)methanone]"
2.3,54,7,Cc1ccc(-n2nccn2)c(C(=O)N2CCC[C@@H](C)[C@H]2COc2ccc(C(F)(F)F)cn2)c1 [Example A106]
0.49,87,1,"C[C@@H]1CCCN(C(=O)c2ccc(F)c(F)c2-n2nccn2)[C@@H]1CNc1ccc(C(F)(F)F)cn1 [Example A324, (3,4-Difluoro-2-(2H-1,2,3-triazol-2-yl)phenyl)((2S,3R)-3-methyl-2-(((5-(trifluoromethyl)pyridin-2-yl)amino)methyl)piperidin-1-yl)methanone]"
1.9,60,1,"Cc1cc(F)c(-n2nccn2)c(C(=O)N2CCC[C@@H](C)[C@H]2CNc2ncc(C(F)(F)F)cn2)c1 [Example A373, (3-fluoro-5-methyl-2-(2H-1,2,3-triazol-2-yl)phenyl)((2S,3R)-3-methyl-2-(((5-(trifluoromethyl)pyrimidin-2-yl)amino)methyl)piperidin-1-yl)methanone]"
0.5,54,2,"C[C@@H]1CCCN(C(=O)c2c(F)ccc(F)c2-c2ncccn2)[C@@H]1CNc1ccc(C(F)(F)F)cn1 [Example A334, (3,6-difluoro-2-(pyrimidin-2-yl)phenyl)((2S,3R)-3-methyl-2-(((5-(trifluoromethyl)pyridin-2-yl)amino)methyl)piperidin-1-yl)methanone]"
4.1,80,2,"C[C@@H]1CCCN(C(=O)c2ccc(F)c(F)c2-n2nccn2)[C@@H]1CNc1ncc(C(F)(F)F)cn1 [Example A325, (3,4-difluoro-2-(2H-1,2,3-triazol-2-yl)phenyl)((2S,3R)-3-methyl-2-(((5-(trifluoromethyl)pyrimidin-2-yl)amino)methyl)piperidin-1-yl)methanone]"
> 4,77,2,"Cc1cc(F)cc(C(=O)N2CCC[C@@H](C)[C@H]2CNc2ccc(C(F)(F)F)cn2)c1-n1nccn1 [Example A348, (5-fluoro-3-methyl-2-(2H-1,2,3-triazol-2-yl)phenyl)((2S,3R)-3-methyl-2-(((5-(trifluoromethyl)pyridin-2-yl)amino)methyl)piperidin-1-yl)methanone]"
0.87,25,–,"Cc1ccc(F)c(C(=O)N2CCC[C@@H](C)[C@H]2CNc2ncc(C(F)(F)F)cn2)c1-c1ncccn1 [Example A355, (6-fluoro-3-methyl-2-(pyrimidin-2-yl)phenyl)((2S,3R)-3-methyl-2-(((5-(trifluoromethyl)pyrimidin-2-yl)amino)methyl)piperidin-1-yl)methanone]"
2.4,–,12,"C[C@@H]1CCCN(C(=O)c2ccc(F)cc2-c2ncccn2)[C@@H]1CNc1ncc(C(F)(F)F)cn1 [Example A235, (4-Fluoro-2-(pyrimidin-2-yl)phenyl)((2S,3R)-3-methyl-2-(((5-(trifluoromethyl)pyrimidin-2-yl)amino)methyl)piperidin-1-yl)methanone]"
1.4,–,2,"Cc1ccc(-c2ncccn2)c(C(=O)N2CCC[C@@H](C)[C@H]2CNc2ccc(C(F)(F)F)cn2)c1F [Example A320, (2-Fluoro-3-methyl-6-(pyrimidin-2-yl)phenyl)((2S,3R)-3-methyl-2-(((5-(trifluoromethyl)pyridin-2-yl)amino)methyl)piperidin-1-yl)methanone]"
